Reference: US20080146495A1, “Methods for Treating Hiv by Inhibiting Cd4 Down-Modulation” (The Regents of the University of California, priority 2005, published 2008)

Experiments:
Type in all cases: cell-based
HIV-1 = test system: HIV-1
HIV-1 (R9) [1] = experiment: HIV-induced CD4 down-modulation in transduced CD4-positive cell lines (SupT1, C8166, MAGIC5B)
[2] = test system: CXCR4-tropic R9 HIV-1 strain; experiment: Viral replication assay in transduced Jurkat Low-CD4 cells (p24 accumulation)
[3] = test system: HIV-1 Env (gp160, gp120, gp41)
HIV-1 (R9) [4] = experiment: Surface CD4 down-modulation in transduced PBMC infected with HIV-1 (flow cytometry)
HIV-1 R9 = test system: HIV-1 R9
HIV-1 (R9) [5] = experiment: Infectivity in MAGIC5 cells of particles released from transduced SupT1, C8166 and MAGIC5B cells; conditions: three cell types (SupT1, C8166, MAGIC5B); compared to control GFP vectors
Procedure: Infectivity assays were performed with MAGIC-5 cells using equal amounts of input virus (measured as ng p24 protein) in the presence of 20 μg/ml DEAE dextran. Infection was allowed for 48 hours. Routinely, after 8 hrs of infection, 1 μM AZT was added to block second rounds of virus replication. Infected cells were scored after staining for beta-galactosidase with X-Gal.
Truncated receptor provided to a cell via one of the above-described vectors negatively interferes with HIV-induced down-regulation of endogenous CD4 receptor. […] Though any suitable cell line could be used, the three chosen were: SupT1, C8166, and MAGIC5B. These were selected because they express high levels of viral receptor, as shown in the bottom panel of FIG. 7. Transduction efficiencies with GFP control vectors were higher than 90% in all cell lines, as estimated by flow cytometry. Infection of mock-transduced cells with HIV-1 led to efficient down-modulation of CD4. […] In these cultures, a population of low-CD4/p24-positive infected cells that had undergone receptor down-modulation emerged. […] The infectivity of viral particles released from the cells was determined as with respect to FIG. 5, above.

[6] = test system: HIV-1 Nef (NA7) fused to GFP; conditions: 293T cells transduced with pHR'-CMV vectors, transfected with Nef (NA7)-GFP
[7] = virions purified through sucrose cushions

Compound	extent of inhibition of infectivity relative to that by CD4Δcyt expression (HIV-1; 1 μM added to target MAGIC5 cells)	extent of inhibition in single-round infectivity assays (HIV-1)	reduced infectivity of viral progeny (HIV-1) [fold]	reduction of infectivity of HIV-1 (HIV-1)	surface CD4 levels in infected cells, higher than in mock-infected cells (HIV-1 (R9) [1]; SupT1, C8166, MAGIC5B cells)	receptor down-modulation after HIV-1 infection of transduced CD4-positive cells (HIV-1 (R9) [1]; SupT1, C8166, MAGIC5B cells, 48 h after infection)	p24-positive cells with low levels of CD4 receptor (HIV-1 (R9) [1]; cultures of SupT1 and C8166 cells)	HIV-1 replication (p24 accumulation in cultures) ([2]; Jurkat Low-CD4 cells, HIV-1 R9)	revertant viruses ([2]; after more than 60 days, two independent experiments, Jurkat Low-CD4 cells exposed to HIV-1)	gp160 envelope precursor in producer cell lysates (anti-gp120 western blot) ([3]; total cell lysates of 293T producer cells)	steady-state levels of gp41 in producer cells ([3]; transduced 293T cells)	gp41 incorporation in membranes from virions [3, 7]	gp120 incorporation into / exclusion from virions [3, 7]	reduction in CD4 down-modulation compared to cells transduced with full-length receptor (HIV-1 (R9) [4]; PBMC infected with HIV-1)	numbers of low-CD4/GFP-positive cells after HIV-1 infection (HIV-1 (R9) [4]; PBMC transduced to similar levels with pWPI vector)	amount on the surface of infected cells, mean values (HIV-1 R9)	down-modulation of surface receptor by HIV-1 (VSV) (HIV-1 R9)	surface levels in HIV-1 infected cells, higher than in infected cells transduced with wild-type CD4 (HIV-1 R9) [fold]	infectivity of viral particles released from transduced cells (HIV-1 (R9) [5])	effect of Nef-GFP expression on surface expression of the CD4 variant [6]
Cc1cn([C@H]2C[C@H](N=[N+]=[N-])[C@@H](CO)O2)c(=O)[nH]c1=O [AZT, reference compound]	comparable	–	–	–	–	–	–	–	–	–	–	–	–	–	–	–	–	–	–	–
CD4Δcyt	–	greater than 99%	100	more than 1000 fold	3- to 4 fold	failed to down-modulate the receptor	no longer observed	complete abrogation of HIV-1 replication	not detected	accumulation of a 160 kDa protein band	reduction in the steady-state levels of gp41	Reductions in gp41 incorporation	more severe	more than 10 fold	reduced numbers of low-CD4/GFP-positive cells	2857	completely resistant to down-modulation	11	largely diminished infectivity	did not alter the expression
